# According to patent US20030157154A1, “Compositions containing hydroxy aromatic aldehydes and their use in treatments” (priority 2002, published 2003):
# Tests used:
# PGE-2 [1] = assay: IL-1 induced PGE-2 in human skin fibroblasts (ELISA of culture medium); assay type: cell-based; settings: Skin fibroblast, IL-1 500 picograms/ml, 24 hours, read-out: percent inhibition of IL-1 induced PGE-2; for inhibition at 1 µM: compound 1 μM; for inhibition at 10 µM: compound 10 μM; for inhibition at 50 µM: compound 50 μM
# Description: (§1) For this experiment, human skin fibroblasts were seeded into 12 well culture dishes at a density of 80,000 cells/well in tissue culture medium and left overnight to attach to the dish. The next day, medium was removed and replaced with fresh medium containing either 1% ethanol as a diluent control, IL-1 at a concentration of 500 picograms/ml, or IL-1 plus one of the compounds under investigation at a concentration of 1, 10, 50 or 100 μM. Cells were incubated for an additional 24 hours and at this time, the medium was removed and assayed by ELISA for the presence of PGE-2 in the culture medium.
# PGE-2 [2] = assay: TPA-induced PGE-2 in human skin keratinocytes (ELISA of culture medium); assay type: cell-based; settings: TPA 32 nM
# Description: as §1
# Similar in vitro studies as those described in Example 1 were run using human skin keratinocytes except that the aromatic aldehyde was not added t. The experimental set up was the same as described for Example 1, but replacing IL-1 with tetradecanoyl phorbol acetate (TPA) at a concentration of 32 nM as the agonist. Samples of 3,5-Di-tert-butyl, 4- hydroxybenzaldehyde (DTHB) in concentrations of either 10, 50, or 100 μM were tested. […] However, treatment with DTHB blocked PGE-2 production by at least 50.
SMILES,inhibition at 1 µM (PGE-2 [1]) [%],inhibition at 10 µM (PGE-2 [1]) [%],inhibition at 50 µM (PGE-2 [1]) [%],"inhibition at 10 µM (PGE-2 [2]; Keratinocyte, compound 10 μM, read-out: percent inhibition of TPA-induced PGE-2) [%]","blocked PGE-2 production (PGE-2 [2]; DTHB 10, 50, or 100 μM)"
"CC(C)(C)c1cc(C=O)cc(C(C)(C)C)c1O [DTHB, 3,5 di-tert-butyl-4-hydroxybenzaldehyde]",3.3,44.4,100,87.9,at least 50
"CCOc1ccc(C=O)cc1 [4-EB, 4-ethoxybenzaldehyde, reference compound]",10,6,100,,
